Source: patent US7407973B2, “Use of pirfenidone in therapeutic regimens” (Intermune, Inc., priority 2003, dated 2008)

Tests used:
STAT1 = test: IFN-γ-induced STAT1 tyrosine phosphorylation in ME180 cells (immunoblot); assay type: cell-based, human; conditions: serum-starved ME180 cells; 100 μg/ml Pirfenidone for 1 h, then 10 ng/ml IFN-γ for 0-60 min; anti-phospho STAT1 immunoblot
Method: ME180 cells were grown in DMEM supplemented with 10% heat inactivated fetal calf serum, 2 mM L-glutamine, streptomycin (100 μg/ml) and penicillin (100 units/ml). Briefly, cells were seeded at a density of 5×10^6 cells in 100 mm tissue culture dishes. After 24 hrs, cells were washed with phosphate-buffered saline (PBS) and incubated in serum free growth media for 16 hours, then treated with medium or with 100 μg/ml of Pirfenidone for 1 h before treating them with Actimune (10 ng/ml) for 0-10-20-40 and 60 min. At the end of incubation period, cells were lysed by incubation in 50 mM HEPES (pH 7.0) containing 100 mM NaCl, 1.2% Triton X-100, 10% glycerol, 1.5 mM MgCl2, 100 mM NaF, 10 mM sodium pyrophosphate, 1 mM sodium orthovanadate, 1 mM EGTA (ethylene glycol-bis-β-aminoethylether-tetraacetic acid), 1 mM DTT (dithiothreitol), 1 mM phenylmethylsulfonylfloride (PMSF), 0.15 unit/ml aprotinin, 10 μg/ml leupeptin, 10 μg/ml pepstatin. Lysates were clarified by centrifugation (12.000×g for 1 min.). Equal amounts (100 μg) total proteins were subjected to SDS-PAGE on 10% polyacrylamide gels to separate the proteins. The proteins were then electrophoretically transferred from the polyacrylamide gel onto a nitrocellulose sheet for overnight at 20 mAmp, and analyzed by immunoblotting with anti-phospho STAT1-specific antibody (antibody specific for phosphorylated STAT1). […]

SAPK = test: Human kinase panel, overall conclusion: SAPK; assay type: biochemical
Method: (§1) Enzymatic activity of various human kinases was assayed in the presence and the absence of pirfenidone. Percent enzyme activity of various human enzymes in the presence of substrate and pirfenidone are shown in FIGS. 1-5, and in Table 2, below, where “percent enzyme activity” is the percent of the control activity (e.g., in the absence of pirfenidone): […]

PKCη = PKCη (Homo sapiens, UniProt P24723); test: Enzymatic activity of human kinase in presence of pirfenidone; assay type: biochemical; conditions: percent of control activity in absence of pirfenidone, concentration not given
Method: as §1

cSRC = cSRC (Homo sapiens, UniProt P12931); test: as above; assay type: biochemical; conditions: percent of control activity in absence of pirfenidone, concentration not given
Method: as §1

TrkB = TrkB (Homo sapiens, UniProt Q16620); test: as above; assay type: biochemical; conditions: percent of control activity in absence of pirfenidone, concentration not given
Method: as §1

PRK2 = PRK2 (Homo sapiens, UniProt Q16513); test: as above; assay type: biochemical; conditions: percent of control activity in absence of pirfenidone, concentration not given
Method: as §1

SAPK2α = SAPK2α (Homo sapiens, UniProt Q16539); test: as above; assay type: biochemical; conditions: percent of control activity in absence of pirfenidone, concentration not given
Method: as §1

ZAP-70 = ZAP-70 (Homo sapiens, UniProt P43403); test: as above; assay type: biochemical; conditions: percent of control activity in absence of pirfenidone, concentration not given
Method: as §1

JNK3 = JNK3 (Homo sapiens, UniProt P53779); test: as above; assay type: biochemical; conditions: percent of control activity in absence of pirfenidone, concentration not given
Method: as §1

GSK3α = GSK3α (Homo sapiens, UniProt P49840); test: as above; assay type: biochemical; conditions: percent of control activity in absence of pirfenidone, concentration not given
Method: as §1

JNK1 = JNK1 (Homo sapiens, UniProt P45983); test: as above; assay type: biochemical; conditions: percent of control activity in absence of pirfenidone, concentration not given
Method: as §1

Ax1 = Ax1 (Homo sapiens, UniProt P30530); test: as above; assay type: biochemical; conditions: percent of control activity in absence of pirfenidone, concentration not given
Method: as §1

Rsk2 = Rsk2 (Homo sapiens, UniProt P51812); test: as above; assay type: biochemical; conditions: percent of control activity in absence of pirfenidone, concentration not given
Method: as §1

c-RAF = c-RAF (Homo sapiens, UniProt P04049); test: as above; assay type: biochemical; conditions: percent of control activity in absence of pirfenidone, concentration not given
Method: as §1

PKCδ = PKCδ (Homo sapiens, UniProt Q05655); test: as above; assay type: biochemical; conditions: percent of control activity in absence of pirfenidone, concentration not given
Method: as §1

MAPK1 (Homo sapiens) = test: as above; assay type: biochemical; conditions: percent of control activity in absence of pirfenidone, concentration not given
Method: as §1

Flt3 = Flt3 (Homo sapiens, UniProt P36888); test: as above; assay type: biochemical; conditions: percent of control activity in absence of pirfenidone, concentration not given
Method: as §1

PKCo = test: as above; assay type: biochemical; conditions: percent of control activity in absence of pirfenidone, concentration not given
Method: as §1

MEK1 = MEK1 (Homo sapiens, UniProt Q02750); test: as above; assay type: biochemical; conditions: percent of control activity in absence of pirfenidone, concentration not given
Method: as §1

MAPKAP-K2 = MAPKAP-K2 (Homo sapiens, UniProt P49137); test: as above; assay type: biochemical; conditions: percent of control activity in absence of pirfenidone, concentration not given
Method: as §1

PKCβII = PKCβII (Homo sapiens, UniProt P05771); test: as above; assay type: biochemical; conditions: percent of control activity in absence of pirfenidone, concentration not given
Method: as §1

CDK5/cyclinB = CDK5/cyclinB (Homo sapiens, UniProt Q00535); test: as above; assay type: biochemical; conditions: percent of control activity in absence of pirfenidone, concentration not given
Method: as §1

IKKβ = IKKβ (Homo sapiens, UniProt O14920); test: as above; assay type: biochemical; conditions: percent of control activity in absence of pirfenidone, concentration not given
Method: as §1

PAK2 = PAK2 (Homo sapiens, UniProt Q13177); test: as above; assay type: biochemical; conditions: percent of control activity in absence of pirfenidone, concentration not given
Method: as §1

MAPK2 = MAPK2 (Homo sapiens, UniProt P28482); test: as above; assay type: biochemical; conditions: percent of control activity in absence of pirfenidone, concentration not given
Method: as §1

Aurora-A = Aurora-A (Homo sapiens, UniProt O14965); test: as above; assay type: biochemical; conditions: percent of control activity in absence of pirfenidone, concentration not given
Method: as §1

Fes = Fes (Homo sapiens, UniProt P07332); test: as above; assay type: biochemical; conditions: percent of control activity in absence of pirfenidone, concentration not given
Method: as §1

MKK7β = MKK7β (Homo sapiens, UniProt O14733); test: as above; assay type: biochemical; conditions: percent of control activity in absence of pirfenidone, concentration not given
Method: as §1

PKCτ = test: as above; assay type: biochemical; conditions: percent of control activity in absence of pirfenidone, concentration not given
Method: as §1

CSK = CSK (Homo sapiens, UniProt P41240); test: as above; assay type: biochemical; conditions: percent of control activity in absence of pirfenidone, concentration not given
Method: as §1

PDK1 = PDK1 (Homo sapiens, UniProt O15530); test: as above; assay type: biochemical; conditions: percent of control activity in absence of pirfenidone, concentration not given
Method: as §1

Chain of Rsk2 (P51812 whole entry): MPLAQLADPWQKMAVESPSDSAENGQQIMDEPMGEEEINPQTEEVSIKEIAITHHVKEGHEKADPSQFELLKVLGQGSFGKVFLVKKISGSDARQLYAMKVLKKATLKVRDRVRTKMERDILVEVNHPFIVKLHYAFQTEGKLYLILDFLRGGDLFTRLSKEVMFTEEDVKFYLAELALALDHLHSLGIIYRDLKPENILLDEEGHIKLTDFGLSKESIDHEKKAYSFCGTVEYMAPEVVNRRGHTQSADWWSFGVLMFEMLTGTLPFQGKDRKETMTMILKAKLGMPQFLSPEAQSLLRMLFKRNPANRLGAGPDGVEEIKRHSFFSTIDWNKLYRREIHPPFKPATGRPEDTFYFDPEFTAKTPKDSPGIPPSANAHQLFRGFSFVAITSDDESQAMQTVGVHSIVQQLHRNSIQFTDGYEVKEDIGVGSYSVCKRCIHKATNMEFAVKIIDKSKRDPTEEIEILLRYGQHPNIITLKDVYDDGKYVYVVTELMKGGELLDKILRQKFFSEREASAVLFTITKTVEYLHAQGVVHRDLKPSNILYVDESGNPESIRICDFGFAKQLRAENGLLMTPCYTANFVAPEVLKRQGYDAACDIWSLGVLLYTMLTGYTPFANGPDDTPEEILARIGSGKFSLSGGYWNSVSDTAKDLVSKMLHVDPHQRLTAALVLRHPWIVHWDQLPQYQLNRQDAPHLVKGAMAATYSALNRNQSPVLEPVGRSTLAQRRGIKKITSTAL
Chain of MKK7β (O14733 whole entry): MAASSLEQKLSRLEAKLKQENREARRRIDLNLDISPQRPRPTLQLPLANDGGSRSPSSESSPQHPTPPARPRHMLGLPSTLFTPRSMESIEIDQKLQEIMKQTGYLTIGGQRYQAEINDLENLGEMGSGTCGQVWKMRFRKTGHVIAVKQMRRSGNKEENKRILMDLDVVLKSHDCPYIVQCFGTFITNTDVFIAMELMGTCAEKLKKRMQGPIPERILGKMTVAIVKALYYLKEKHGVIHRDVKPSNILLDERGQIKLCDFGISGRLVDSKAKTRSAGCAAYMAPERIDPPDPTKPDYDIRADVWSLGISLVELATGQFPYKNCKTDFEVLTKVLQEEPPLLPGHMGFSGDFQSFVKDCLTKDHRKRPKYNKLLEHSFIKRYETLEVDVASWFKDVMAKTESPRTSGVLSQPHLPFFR
Chain of MAPKAP-K2 (P49137 whole entry): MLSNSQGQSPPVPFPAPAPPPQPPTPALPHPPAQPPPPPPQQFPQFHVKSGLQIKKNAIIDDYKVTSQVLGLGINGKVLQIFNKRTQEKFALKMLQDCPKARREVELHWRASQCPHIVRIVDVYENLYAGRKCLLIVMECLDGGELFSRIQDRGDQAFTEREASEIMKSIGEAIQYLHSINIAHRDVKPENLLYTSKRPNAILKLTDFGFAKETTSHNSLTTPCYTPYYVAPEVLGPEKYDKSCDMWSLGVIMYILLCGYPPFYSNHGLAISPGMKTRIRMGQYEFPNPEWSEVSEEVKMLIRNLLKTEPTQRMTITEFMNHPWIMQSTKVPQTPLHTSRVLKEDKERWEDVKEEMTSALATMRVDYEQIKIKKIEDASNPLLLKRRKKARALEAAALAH
Chain of GSK3α (P49840 whole entry): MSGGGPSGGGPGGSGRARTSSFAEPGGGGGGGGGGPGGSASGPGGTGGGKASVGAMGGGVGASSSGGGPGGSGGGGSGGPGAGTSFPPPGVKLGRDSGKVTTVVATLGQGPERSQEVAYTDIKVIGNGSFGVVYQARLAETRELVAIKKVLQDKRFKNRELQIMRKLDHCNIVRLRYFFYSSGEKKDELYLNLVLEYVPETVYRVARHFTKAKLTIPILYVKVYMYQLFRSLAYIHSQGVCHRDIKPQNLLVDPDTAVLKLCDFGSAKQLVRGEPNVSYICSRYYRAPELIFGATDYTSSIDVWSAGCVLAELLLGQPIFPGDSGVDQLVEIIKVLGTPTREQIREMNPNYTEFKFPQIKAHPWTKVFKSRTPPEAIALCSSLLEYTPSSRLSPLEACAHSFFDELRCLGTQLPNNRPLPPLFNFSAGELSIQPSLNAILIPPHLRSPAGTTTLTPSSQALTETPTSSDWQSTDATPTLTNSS
Chain of PKCβII (P05771 1-673 isoform P05771-2): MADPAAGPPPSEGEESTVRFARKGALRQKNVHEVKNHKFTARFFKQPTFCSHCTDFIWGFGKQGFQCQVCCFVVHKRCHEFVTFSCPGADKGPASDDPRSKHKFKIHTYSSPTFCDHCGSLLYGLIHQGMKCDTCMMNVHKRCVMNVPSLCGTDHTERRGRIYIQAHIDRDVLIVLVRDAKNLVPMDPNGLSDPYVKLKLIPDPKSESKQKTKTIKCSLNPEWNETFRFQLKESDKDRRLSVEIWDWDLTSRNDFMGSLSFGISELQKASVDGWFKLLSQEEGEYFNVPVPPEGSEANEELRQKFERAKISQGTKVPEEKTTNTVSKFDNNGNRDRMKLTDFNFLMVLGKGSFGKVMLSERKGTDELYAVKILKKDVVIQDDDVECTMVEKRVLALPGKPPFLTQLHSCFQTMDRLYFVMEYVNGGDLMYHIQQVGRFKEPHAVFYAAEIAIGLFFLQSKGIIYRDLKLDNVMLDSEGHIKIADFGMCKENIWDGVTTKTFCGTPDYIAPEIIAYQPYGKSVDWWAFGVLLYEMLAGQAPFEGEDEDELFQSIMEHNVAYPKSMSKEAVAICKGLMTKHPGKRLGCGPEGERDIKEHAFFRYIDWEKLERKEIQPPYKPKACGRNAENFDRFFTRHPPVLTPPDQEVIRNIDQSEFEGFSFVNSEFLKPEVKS
Chain of MAPK2 (P28482 whole entry): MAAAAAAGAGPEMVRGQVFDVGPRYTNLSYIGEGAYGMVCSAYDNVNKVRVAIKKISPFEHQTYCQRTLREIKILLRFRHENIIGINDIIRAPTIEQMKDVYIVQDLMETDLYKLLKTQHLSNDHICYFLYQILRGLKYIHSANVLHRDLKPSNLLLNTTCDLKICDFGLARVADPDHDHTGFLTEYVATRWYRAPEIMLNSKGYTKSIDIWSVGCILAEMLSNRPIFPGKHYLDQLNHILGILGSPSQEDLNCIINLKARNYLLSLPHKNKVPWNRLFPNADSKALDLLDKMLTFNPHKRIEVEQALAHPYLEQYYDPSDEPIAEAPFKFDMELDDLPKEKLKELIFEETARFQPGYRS
Chain of PRK2 (Q16513 whole entry): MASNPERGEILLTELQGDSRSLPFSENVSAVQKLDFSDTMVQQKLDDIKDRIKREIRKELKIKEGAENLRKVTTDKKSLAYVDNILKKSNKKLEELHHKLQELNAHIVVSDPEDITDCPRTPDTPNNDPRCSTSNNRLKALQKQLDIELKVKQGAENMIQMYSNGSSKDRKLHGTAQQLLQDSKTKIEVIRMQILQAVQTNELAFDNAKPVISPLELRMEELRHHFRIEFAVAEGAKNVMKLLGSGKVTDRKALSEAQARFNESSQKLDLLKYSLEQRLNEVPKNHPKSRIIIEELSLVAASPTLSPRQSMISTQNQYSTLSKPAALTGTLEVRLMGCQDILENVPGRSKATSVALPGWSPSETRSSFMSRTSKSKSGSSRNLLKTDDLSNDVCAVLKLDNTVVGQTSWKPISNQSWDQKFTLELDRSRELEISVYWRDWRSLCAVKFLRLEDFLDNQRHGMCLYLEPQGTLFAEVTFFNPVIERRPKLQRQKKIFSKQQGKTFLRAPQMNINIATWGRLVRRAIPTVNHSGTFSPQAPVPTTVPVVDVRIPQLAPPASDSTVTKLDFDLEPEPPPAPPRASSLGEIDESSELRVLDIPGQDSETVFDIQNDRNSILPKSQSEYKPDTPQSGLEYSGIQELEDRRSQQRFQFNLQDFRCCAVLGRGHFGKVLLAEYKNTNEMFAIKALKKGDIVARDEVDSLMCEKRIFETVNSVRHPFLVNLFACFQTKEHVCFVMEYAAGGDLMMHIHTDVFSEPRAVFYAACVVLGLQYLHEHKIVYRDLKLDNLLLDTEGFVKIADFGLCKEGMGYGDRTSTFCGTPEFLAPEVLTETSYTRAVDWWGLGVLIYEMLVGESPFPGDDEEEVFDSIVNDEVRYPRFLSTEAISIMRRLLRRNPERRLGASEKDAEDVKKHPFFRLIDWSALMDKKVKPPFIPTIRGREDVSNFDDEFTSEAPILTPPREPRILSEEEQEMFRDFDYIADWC
Chain of MEK1 (Q02750 whole entry): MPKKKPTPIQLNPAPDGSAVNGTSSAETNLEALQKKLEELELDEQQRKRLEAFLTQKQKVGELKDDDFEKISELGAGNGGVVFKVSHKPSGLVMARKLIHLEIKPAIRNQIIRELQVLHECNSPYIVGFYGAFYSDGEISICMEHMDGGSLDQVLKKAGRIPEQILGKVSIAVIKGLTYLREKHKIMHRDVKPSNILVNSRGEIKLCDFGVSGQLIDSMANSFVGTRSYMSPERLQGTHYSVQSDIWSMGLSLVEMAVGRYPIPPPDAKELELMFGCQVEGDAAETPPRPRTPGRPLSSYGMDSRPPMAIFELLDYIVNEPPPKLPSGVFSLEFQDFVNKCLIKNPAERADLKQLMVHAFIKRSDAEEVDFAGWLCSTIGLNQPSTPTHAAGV
Chain of CSK (P41240 whole entry): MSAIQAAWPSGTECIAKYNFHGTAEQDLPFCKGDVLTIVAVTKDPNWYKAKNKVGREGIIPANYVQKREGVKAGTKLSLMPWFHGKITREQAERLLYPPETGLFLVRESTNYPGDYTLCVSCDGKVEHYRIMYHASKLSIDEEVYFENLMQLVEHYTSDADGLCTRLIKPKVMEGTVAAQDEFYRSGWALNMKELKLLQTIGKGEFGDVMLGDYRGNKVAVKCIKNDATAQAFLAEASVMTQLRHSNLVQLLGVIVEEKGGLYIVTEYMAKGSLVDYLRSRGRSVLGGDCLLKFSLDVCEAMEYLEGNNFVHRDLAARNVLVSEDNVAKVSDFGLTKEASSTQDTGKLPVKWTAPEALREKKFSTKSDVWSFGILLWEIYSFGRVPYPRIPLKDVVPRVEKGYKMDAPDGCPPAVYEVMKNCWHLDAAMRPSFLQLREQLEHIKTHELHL

Q: What does the source list for `Cc1ccc(=O)n(-c2ccccc2)c1` [pirfenidone, 5-methyl-1-phenyl-2-(1H)-pyridone]?
A: Effect on IFN-γ-induced STAT1 tyrosine phosphorylation (STAT1): does not affect; Inhibition of SAPK (conclusion from Table 2 data) (SAPK): is an inhibitor of SAPK; % Activity (PKCη): 88%; % Activity (cSRC): 91%; % Activity (TrkB): 101%; % Activity (PRK2): 90%; % Activity (SAPK2α): 70%; % Activity (ZAP-70): 109%; % Activity (JNK3): 106%; % Activity (GSK3α): 91%; % Activity (JNK1): 105%; % Activity (Ax1): 93%; % Activity (Rsk2): 99%; % Activity (c-RAF): 91%; % Activity (PKCδ): 102%; % Activity (MAPK1 (Homo sapiens)): 98%; % Activity (Flt3): 103%; % Activity (PKCo): 106%; % Activity (MEK1): 100%; % Activity (MAPKAP-K2): 97%; % Activity (PKCβII): 100%; % Activity (CDK5/cyclinB): 102%; % Activity (IKKβ): 90%; % Activity (PAK2): 93%; % Activity (MAPK2): 100%; % Activity (Aurora-A): 120%; % Activity (Fes): 88%; % Activity (MKK7β): 105%; % Activity (PKCτ): 96%; % Activity (CSK): 64%; % Activity (PDK1): 93%
